Measured values as given in article PMC6450621, “Changes of drug pharmacokinetics mediated by downregulation of kidney organic cation transporters Mate1 and Oct2 in a rat model of hyperuricemia” (PLoS ONE, 2019).
Where “and” joins values, the source holds several entries; their conditions need not be identical. Identical values can stand only once.

Experiments:
[1] = target: T1, human MATE1 (Homo sapiens, UniProt Q96FL8); test: Uptake of [3H]MPP+ by MATE1-expressing HEK293 cells; assay type: cell-based; conditions: for Inhibitory effect on MATE1-mediated MPP+ uptake: 50 and 500 μM of each; for MATE1-mediated uptake of MPP+, % of Control: after subtraction of uptake by mock cells; for MATE1-mediated uptake of MPP+, % of Control / C/M ratio of MPP+ uptake, MATE1-expressing cells: replicates and mean
T1 construct: expressed in transfected cells; host or cells: HEK293 (HEK293/hMATE1; gift from Dr. Inoue, Tokyo University of Pharmacy and Life Science)
T1 sequence (Q96FL8 1-570): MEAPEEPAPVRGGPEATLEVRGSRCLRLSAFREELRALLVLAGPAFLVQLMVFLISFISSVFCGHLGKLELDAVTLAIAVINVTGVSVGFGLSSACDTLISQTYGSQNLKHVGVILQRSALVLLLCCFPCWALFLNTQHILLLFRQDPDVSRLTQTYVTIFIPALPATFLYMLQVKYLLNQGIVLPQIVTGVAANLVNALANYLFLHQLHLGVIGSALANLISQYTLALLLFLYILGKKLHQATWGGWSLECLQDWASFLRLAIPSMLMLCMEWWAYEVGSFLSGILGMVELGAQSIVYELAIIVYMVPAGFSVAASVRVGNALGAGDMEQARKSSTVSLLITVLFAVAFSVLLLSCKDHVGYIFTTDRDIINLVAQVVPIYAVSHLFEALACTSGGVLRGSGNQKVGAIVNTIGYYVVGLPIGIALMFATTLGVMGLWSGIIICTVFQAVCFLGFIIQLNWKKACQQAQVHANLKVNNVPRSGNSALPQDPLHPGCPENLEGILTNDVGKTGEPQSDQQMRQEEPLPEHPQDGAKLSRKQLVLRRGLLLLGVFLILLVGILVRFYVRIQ
Method: HEK293 cells transfected with human MATE1 (HEK293/hMATE1) and vector alone (mock) were gifts from Dr. Inoue (Tokyo University of Pharmacy and Life Science). […] HEK293/mock and HEK293/hMATE1 cells were plated at a density of 3.0 × 10^5 cells/well on 24-well plates and cultured for two days before an uptake assay. […] Radioactivity was measured with a liquid scintillation counter (Hitachi Aloka Medical, Tokyo, Japan). Part of the lysate was used for the determination of total protein amount with Bio-Rad protein assay dye reagent. Uptake of MPP^+ was expressed as a cell-to-medium ratio (μL/mg protein) obtained by dividing the uptake amount by the concentration of substrate in the TM. Percentages of control were calculated as the ratio of MATE1-mediated uptake of MPP^+ that obtained after subtraction of the uptake of MPP^+ by mock cells in compound treated groups to that in control group.

[2] = Plasma concentration of oxonic acid and adenine in hyperuricemic rats; assay type: in vivo, rat; conditions: hyperuricemic rats given oral oxonic acid […] and adenine 0.1 g/kg; detection limit 100 μM for oxonic acid
[3] = system: Mock cells; test: Uptake of MPP+ by mock cells (background for MATE1-expressing cells); assay type: cell-based; conditions: replicates and mean
Method: Dunnett's test was used for uptake study to compare the control group to groups treated with drugs.
Percentages of control were calculated as the ratio of MATE1-mediated uptake of MPP^+ that obtained after subtraction of the uptake of MPP^+ by mock cells in compound treated groups to that in control group.

[4] = Inulin clearance in control and hyperuricemic rats; assay type: in vivo, rat; conditions: Day 10, inulin 100 mg/kg iv
Method: Urine was collected at the designated times. […] All samples were stored at -80°C until measurement.
Inulin was measured by the anthrone method. After adding 500 mL concentrated sulfuric acid to 200 mL distilled water and cooling the solution to room temperature, 1.4 g anthrone (Sigma Aldrich) was added to it at 56°C to prepare the anthrone reagent. An aliquot of the reagent (400 μL) was added to 10 μL of plasma or urine suitably diluted with saline. The tube containing the sample was immersed in ice-cold water, shaken well and then allowed to react for 10 min at 56°C. The vial was immersed in ice-cold water to stop the reaction. The absorbance at 636 nm was measured with a spectrophotometer (UVmini1240, Shimadzu).

[5] = 50 μM test compound, HEK293/hMATE1 minus mock, 0.25 nM [3H]MPP+, 0.5 min, 37°C
[6] = 500 μM test compound, HEK293/hMATE1 minus mock, 0.25 nM [3H]MPP+, 0.5 min, 37°C

O=C(O)c1nc(=O)[nH]c(=O)[nH]1 [oxonic acid]
MATE1-mediated uptake of [3H]MPP+, percentage of control [1, 5]: 101.5%
MATE1-mediated uptake of [3H]MPP+, percentage of control [1, 6]: 98.2%
Inhibitory effect on MATE1-mediated MPP+ uptake [1]: No inhibitory effects
MATE1-mediated uptake of MPP+, % of Control ([1]; Oxonic acid 50 µM): 93.3 % of Control and 90.1 % of Control and 121.0 % of Control
MATE1-mediated uptake of MPP+, % of Control ([1]; Oxonic acid 50 µM, mean): 101.5 % of Control
C/M ratio of MPP+ uptake, MATE1-expressing cells ([1]; Oxonic acid 50 µM): 177 µL/mg protein and 232 µL/mg protein and 183 µL/mg protein
C/M ratio of MPP+ uptake, MATE1-expressing cells ([1]; Oxonic acid 50 µM, mean): 197 µL/mg protein
MATE1-mediated uptake of MPP+, % of Control ([1]; Oxonic acid 500 µM): 118.1 % of Control and 83.7 % of Control and 92.8 % of Control
MATE1-mediated uptake of MPP+, % of Control ([1]; Oxonic acid 500 µM, mean): 98.2 % of Control
C/M ratio of MPP+ uptake, MATE1-expressing cells ([1]; Oxonic acid 500 µM): 173 µL/mg protein and 190 µL/mg protein and 235 µL/mg protein
C/M ratio of MPP+ uptake, MATE1-expressing cells ([1]; Oxonic acid 500 µM, mean): 199 µL/mg protein
Plasma concentration [2]: lower than 100 μM
C/M ratio of MPP+ uptake, Mock cells ([3]; Oxonic acid 50 µM): 18.7 µL/mg protein and 13.1 µL/mg protein and 12.3 µL/mg protein
C/M ratio of MPP+ uptake, Mock cells ([3]; Oxonic acid 50 µM, mean): 14.7 µL/mg protein
C/M ratio of MPP+ uptake, Mock cells ([3]; Oxonic acid 500 µM): 19.2 µL/mg protein and 28.0 µL/mg protein and 20.9 µL/mg protein
C/M ratio of MPP+ uptake, Mock cells ([3]; Oxonic acid 500 µM, mean): 22.7 µL/mg protein

CN/C(=N/CCSCc1nc[nH]c1C)NC#N [cimetidine]
MATE1-mediated uptake of MPP+, % of Control ([1]; 100 µM, 100 µM): 5.0 % of Control and 14.6 % of Control
C/M ratio of MPP+ uptake, MATE1-expressing cells ([1]; 100 µM): 36.0 µL/mg protein and 18.8 µL/mg protein
MATE1-mediated uptake of [3H]MPP+, percentage of control ([1]; positive control Mate1 inhibitor, concentration not given, HEK293/hMATE1): 8.2%
C/M ratio of MPP+ uptake, Mock cells ([3]; 100 µM): 9.40 µL/mg protein and 10.25 µL/mg protein and 9.69 µL/mg protein

Nc1ncnc2nc[nH]c12 [adenine]
MATE1-mediated uptake of MPP+, % of Control ([1]; Adenine 50 µM): 68.3 % of Control and 107.0 % of Control
MATE1-mediated uptake of MPP+, % of Control ([1]; Adenine 500 µM): 89.5 % of Control and 71.0 % of Control and 100.5 % of Control
MATE1-mediated uptake of MPP+, % of Control ([1]; Adenine 500 µM, mean): 87.0 % of Control
Plasma concentration [2]: lower than 100 μM

O=c1[nH]c(=O)c2[nH]c(=O)[nH]c2[nH]1 [uric acid]
MATE1-mediated uptake of [3H]MPP+, percentage of control [1, 5]: 102.0%
MATE1-mediated uptake of [3H]MPP+, percentage of control [1, 6]: 100.7%
Inhibitory effect on MATE1-mediated MPP+ uptake [1]: No inhibitory effects
MATE1-mediated uptake of MPP+, % of Control ([1]; Uric acid 50 µM): 96.8 % of Control and 81.0 % of Control and 128.4 % of Control
MATE1-mediated uptake of MPP+, % of Control ([1]; Uric acid 50 µM, mean): 102.0 % of Control
MATE1-mediated uptake of MPP+, % of Control ([1]; Uric acid 500 µM): 87.8 % of Control and 117.9 % of Control and 96.4 % of Control
MATE1-mediated uptake of MPP+, % of Control ([1]; Uric acid 500 µM, mean): 100.7 % of Control

inulin
Inulin Clearance ([4]; control rats, individual rat): 5.90 mL/min/kg and 7.51 mL/min/kg and 6.75 mL/min/kg
Inulin Clearance ([4]; control rats, mean): 6.72 mL/min/kg
Inulin Clearance ([4]; hyperuricemic rats, individual rat): 7.92 mL/min/kg and 4.99 mL/min/kg and 6.15 mL/min/kg and 4.14 mL/min/kg and 3.58 mL/min/kg
Inulin Clearance ([4]; hyperuricemic rats, mean): 5.36 mL/min/kg
